Assay results as given in ChEMBL document CHEMBL1123983, “Bis(4-hydroxyphenyl)[2-(phenoxysulfonyl)phenyl]methane: isolation and structure elucidation of a novel estrogen from commercial preparations of phenol red (phenolsulfonphthalein)” (J Med Chem, 1988).

Target: Estrogen receptor (Homo sapiens) (UniProt Q92731+P03372)
Assay: Estrogen-related induction of progesterone receptor expression in MCF-7 cells at 10e-6 M
Format: cell-based
Settings: MCF7

PR level, % of control: 1680%
Compound: O=S(=O)(Oc1ccccc1)c1ccccc1C(c1ccc(O)cc1)c1ccc(O)cc1
